Measurements from ChEMBL document CHEMBL1287759, “Discovery of novel osthole derivatives as potential anti-breast cancer treatment” (Bioorg Med Chem Lett, 2010).

Columns and labels:
[1] = tested on: MDA-MB-231; experiment: Anticancer activity against human MDA-MB-231 assessed as inhibition of cell growth by MTT assay; assay type: functional, cell-based
[2] = tested on: MCF7; experiment: Anticancer activity against human MCF7 assessed as inhibition of cell growth by MTT assay; assay type: functional, cell-based
[3] = tested on: HEK293; experiment: Cytotoxicity against human HEK293 assessed as inhibition of cell growth; assay type: cell-based

Structure (SMILES)	IC50 [1]	IC50 [2]	Activity [3]
COc1ccc(-c2cc3ccc(OC)c(CCC(C)C)c3oc2=O)cc1OC	> 50 µM	51.6 µM	
COc1ccc2cc(-c3ccc(C(F)(F)F)cc3)c(=O)oc2c1CCC(C)C	38.1 µM	24.5 µM	
COc1ccc2cc(-c3ccc(F)cc3)c(=O)oc2c1CCC(C)C	> 50 µM	52.6 µM	
COc1ccc2cc(-c3ccc(OC(F)(F)F)cc3)c(=O)oc2c1CCC(C)C	0.31 µM	0.24 µM	Non-toxic
COc1ccc2cc(-c3ccc(F)c(F)c3)c(=O)oc2c1CCC(C)C	33.6 µM	27.3 µM	
COc1ccc2cc(-c3ccc(C)cc3)c(=O)oc2c1CCC(C)C	> 50 µM	50.2 µM	
COc1ccc2cc(-c3ccc(Cl)cc3)c(=O)oc2c1CCC(C)C	5.23 µM	1.27 µM	Non-toxic
COc1ccc2c(Oc3ccc4ccc(=O)oc4c3CCC(C)C)cc(=O)oc2c1	> 50 µM	> 50 µM	
COc1ccc2c(Oc3ccc4cc(-c5ccc(C(F)(F)F)cc5)c(=O)oc4c3CCC(C)C)cc(=O)oc2c1	> 50 µM	45.9 µM	

Continued, in another order:

IC50 [1]	IC50 [2]	Structure (SMILES)	Activity [3]
> 50 µM	42.9 µM	CC(C)CCc1c(O)ccc2cc(-c3ccc(C(F)(F)F)cc3)c(=O)oc12	
4.15 µM	3.23 µM	COc1ccc2cc(-c3ccc(O)cc3)c(=O)oc2c1CCC(C)C	
7.42 µM	5.7 µM	CC(C)CCc1c(O)ccc2cc(-c3ccc(OC(F)(F)F)cc3)c(=O)oc12	
> 50 µM	> 50 µM	COc1ccc2cc(-c3cccnc3)c(=O)oc2c1CCC(C)C	
> 50 µM	> 50 µM	CC(C)CCc1c(Oc2cc(=O)oc3cc(O)ccc23)ccc2ccc(=O)oc12	
> 50 µM	> 50 µM	CC(C)CCc1c(O)ccc2ccc(=O)oc12	
> 50 µM	47 µM	COc1ccc2ccc(=O)oc2c1CCC(C)C	
30.2 µM	25.8 µM	COc1ccc2ccc(=O)oc2c1CC=C(C)C [OSTHOLE]	
